Data on one compound can be found in publication PMC8330735 (Journal of Enzyme Inhibition and Medicinal Chemistry, 2021).

The subject of data set [1] is acetic acid-induced writhing in mice. Put plainly: Acetic acid induced writhing test. Format: in vivo. The following applies: 50 mg/kg p.o., 1 h prior acetic acid i.p., within 30 min. How it is done: The number of writhes, manifested as extension of hind legs, constriction of abdomen, or turning of trunk was recorded within 30 min.
Data set [2] has as its system carrageenan-induced rat paw oedema. Put plainly: Carrageenan-induced rat paw oedema test. Type of data set: in vivo. The following applies: compounds and celecoxib 50 mg/kg, ibuprofen and indomethacin 20 mg/kg. The procedure:
The rats were divided into nine groups (n = 5/group). All tested compounds were suspended in 1% Tween-80. Group 1, controls, were given the vehicle (1% Tween80, 10 ml/kg). […] The rats were given the drugs 1 h before the injection of carrageenan solution (1% in 0.9% NaCl, 0.1 ml) (Sigma Aldrich, USA) in the sub-planter tissue of the right hind paw. The paw thickness (mm) was measured using a calliper before (0 h) and after carrageenan injection at 1, 2, 3, 4, 5 and 24 h. The inhibition of oedema thickness was calculated using the following formula (control– drug/control) × 100.

Another data set deals with HCA7 cells. Put plainly: MTS cell viability assay HCA7. Format: cell-based. The note with it: Homo sapiens, HCA-7, 48 h, cell line highly expressing COX-2. The procedure: (§1) Human colorectal cancer cell lines, HCT116 and HT29, and RAW 264.7 macrophages were obtained from ATCC (Manassas, VA). HCA7 colorectal cancer cell line was obtained from Sigma. HT29 and HCT116 cells were cultured in McCoy's 5 A medium (Sigma Aldrich, St. Louis, MO) containing 10% heat-inactivated foetal bovine serum (HI-FBS) (Gibco, USA), 100 μg/mL streptomycin (Invitrogen, USA), and […] penicillin (Invitrogen, USA)[40]. HCA7 and RAW 264.7 cells were cultured in Dulbecco's minimal essential media (DMEM, Invitrogen) containing 10% HI-FBS, sodium pyruvate (1 mM), penicillin ([…]), and streptomycin (100 mg/m)[41]^,[42].
(§2) Cells were cultured in 96‐well plates for 48 h and then treated with serum-free media containing different concentrations of the tested compounds (12.5, 25, 50, 100 and 150 µM). After 48 h., MTS reagent (Promega) was added as directed by the manufacturer, and then, the absorbance was measured at 495 nm. The absorbance is proportional to the number of viable cells. IC50 was calculated from the dose-response curves as described previously[45] using GraphPad Prism 8 software (GraphPad Software, San Diego, CA).
(In general: Tetrazolium assays rely on reduction of a dye to a coloured formazan, in cell work by metabolically active cells.)

The test system of data set [3] is stomach ulceration in rats. The note with it: rat, in vivo, 2 days.
Procedure: The rats from the previous experiment were fasted for 12 h., followed by the administration of additional doses of the selected compounds or the two references for two consecutive days. Six hrs after the last treatment, the animals were sacrificed, and their stomachs were removed, washed with saline solution (0.9%) and examined for ulceration using a magnifying lens. The ulcer scores were estimated according to the method prescribed by Kulkarni and as detailed in our previous studies[36–38]. The following scores were individually assigned to each lesion: normal coloured stomach, 0; red colouration, 0.5; spot ulcers, 1; haemorrhagic streaks, 1.5; ulcer >3 but <5 mm, 2; and ulcers >5 mm, 3.
The subject of a further data set is HCT116 cells. Put plainly: MTS cell viability assay HCT116. Format: cell-based. The note with it: Homo sapiens, HCT-116, 48 h, cell line scarcely expressing COX-2. How it is done: as §1, §2
The test system of a further data set is HT29 cells. Put plainly: MTS cell viability assay HT29. The note with it: Homo sapiens, HT-29, 48 h, cell line moderately expressing COX-2. Type of data set: cell-based. How it is done: as §1, §2

As to `Cc1ccc(-c2cc(C(F)(F)F)nn2-c2ccc(S(N)(=O)=O)cc2)cc1` [Celecoxib, reference compound], the Number of writhes in data set [1] is 29.20 writhes. For the same compound, the “Mean oedema thickness 1h” value in data set [2] (1 h after carrageenan, mean ± SEM, n = 5) is 1.27 ± 0.07 mm. In addition, the “Mean oedema thickness 2h” value in data set [2] (2 h after carrageenan, mean ± SEM, n = 5) was found to be 1.51 ± 0.07 mm. Further, the “Mean oedema thickness 3h” value in data set [2] (3 h after carrageenan, mean ± SEM, n = 5) was 1.49 ± 0.14 mm. The “Mean oedema thickness 4h” value in data set [2] (4 h after carrageenan, mean ± SEM, n = 5) is given as 1.39 ± 0.12 mm. The “Mean oedema thickness 5h” value in data set [2] (5 h after carrageenan, mean ± SEM, n = 5) is given as 1.19 ± 0.08 mm. Further, the “Mean oedema thickness 24h” value in data set [2] (24 h after carrageenan, mean ± SEM, n = 5) was determined as 0.53 ± 0.12 mm. Also, the “Mean oedema thickness 0h” value in data set [2] (before carrageenan (0 h), mean ± SEM, n = 5) turned out to be 0.00 ± 0.00 mm. In data set [2] (from area under the curve of all time points), this compound gave an Average oedema inhibition% of 47.60%. For the same compound, the 50% inhibitory concentration (IC50) in the data set with HCA7 cells is 51.36 ± 0.04 µM. Besides, in data set [3], the “Average Ulcer number” value came to 0.2, the “Lesion Incidence (%)” value is listed as 20% and the “Number of rats with ulcer” value is given as 1. The midpoint of inhibition with HCT116 cells, the IC50, lay at 53.77 ± 0.05 µM. This compound also yielded an IC50 in the data set on HT29 cells of 5.82 ± 0.38 µM.

By IC50 is commonly meant the concentration that inhibits the measured activity by half. The low end stands for greater potency in that assay, the high end for weaker potency in that assay.
